Measured values: ChEMBL document CHEMBL1157403, “Lanostane-type triterpenoids from the roots of Kadsura coccinea” (2008)

system: HL-60; assay: Antiproliferative activity against human HL60 cells after 3 days by trypan blue staining; assay type: functional; details: HL-60, 72 h

Row | Structure (SMILES) | GI50 [µM]
1 | O=c1[nH]cc(F)c(=O)[nH]1 [FLUOROURACIL] | 3.8
2 | C=C(C)[C@@H]1CC=C2[C@H](CC[C@]3(C)[C@@H]([C@H](C)CC(=O)CC(C)C)CC[C@@]23C)[C@@]1(C)CCC(=O)O [SECO-COCCINIC ACID A] | 6.8
3 | C=C(C)[C@@H]1CC=C2[C@H](CC[C@]3(C)[C@@H]([C@H](C)CC(=O)C=C(C)C)CC[C@@]23C)[C@@]1(C)CCC(=O)O [SECO-COCCINIC ACID B] | 13.3
4 | C=C(C)[C@@H]1CC=C2[C@H](CC[C@]3(C)[C@@H]([C@H](C)CC(=O)CC(C)(C)O)CC[C@@]23C)[C@@]1(C)CCC(=O)O [SECO-COCCINIC ACID C] | 12.1
5 | C=C(C)[C@H](O)CC[C@@H](C)[C@H]1CC[C@@]2(C)C3=CC[C@@H](C(=C)C)[C@](C)(CCC(=O)O)[C@@H]3CC[C@]12C [SECO-COCCINIC ACID E] | 42.1
